Tests used:
[1] = system: monkey eye; assay: IOP test after a single topical ocular instillation in monkeys (Example 1); assay type: in vivo, cynomolgus monkeys; settings: 0.0005% solution, 35 μL/eye; for intraocular pressure lowering effect (in words): compared with vehicle-treated contralateral eye, Student's t-test
Description: This Example is an IOP test using the monkey eye in which about one tenth the clinical dose of latanoprost is compared in IOP reduction with the same dose of 15-keto latanoprost.
The intraocular pressure lowering effects of the 0.0005% solution of 13,14-dihydro-15-keto-17-phenyl-18,19,20-trinor-PGF2α-isopropyl ester (15-keto-latanoprost) and the 0.0005% solution of 13,14-dihydro-17-phenyl-18,19,20-trinor-PGF2α-isopropyl ester (latanoprost) were compared following a single, topical ocular instillation in monkeys.
The solution containing 15-keto-latanoprost or latanoprost at 0.0005% was prepared with the following vehicle. Composition of the vehicle^1) (/mL): NaCl (4.1 mg), NaH2PO4—H2O (4.6 mg), Na2HPO4—2H2O (5.94 mg), Benzalkonium Chloride (0.2 mg) and water for injection
Five male cynomolgus monkeys purchased from Kasyo Co., Ltd. were used. These monkeys were housed individually in cages for monkeys in a room which was maintained at room temperature of 24±1° C., relative humidity of 55±10%, ventilation rate of about 12 times/hour and 12-hour light-dark cycle (fluorescent lighting: 8:00 a.m. to 8:00 p.m.). The animals were given food pellets for monkeys (PS, Oriental Yeast Co., Ltd.), vegetables and fruits, and allowed free access to tap water from an automatic dispenser. The healthy animals without abnormalities in the anterior segment of the eye were used in this study.
Five monkeys were divided into 2 groups of the group 1 (3 monkeys) and group 2 (2 monkeys). […]
The animals were systemically anesthetized by an intramuscular injection of 5 mg/kg of ketamine hydrochloride (Ketalar®50, Sankyo Co., Ltd.), and the anterior segment of both eyes was anesthetized by a instillation of 0.4% oxybuprocaine hydrochloride (Benoxil® 0.4% solution, Santen Pharmaceutical Co., Ltd.). The animals were fixed in a sitting position, and the intraocular pressure was measured by use of an applanation pneumatonograph (Alcon Japan Ltd.) before, and 2, 4, 8, 12 and 24 hours after the instillation. […]
The data were statistically analyzed with Student's t-test.

[2] = system: monkey eye; assay: IOP after additional instillation 12 hours after instillation of 0.005% latanoprost in monkeys (Example 2); assay type: in vivo, cynomolgus monkeys; settings: 30 μL; for effect on IOP of additional instillation, compared with 0.005% latanoprost alone: 0.0005% solution, instilled 12 hours after instillation of 0.005% latanoprost, IOP followed to 32 hours
Description: This Example illustrates the employment of a low dose of 15-keto latanoprost for maintaining a low IOP level following single administration of another IOP reducing agent for obtaining a rapid drop in IOP.
The changes of IOP in 3 different treatment groups were compared to investigate the significance of the presence of 15-keto acid of latanoprost, a 13,14-dihydro-15-keto type metabolite, in maintaining the IOP lowering effect observed after instillation of latanoprost.
15-keto-latanoprost and latanoprost which were synthesized in Ueno Institute for Medical Science were used.
Six male cynomolgus monkeys (body weight: 3.2-3.8 kg) were used. These monkeys were housed individually in cages for monkeys in a monkey rearing room which was maintained at room temperature of 24±1° C., relative humidity of 55±10%, and ventilation of about 12 times/hour and a 12-hour light-dark cycle (fluorescent lighting: 8:00 a.m. to 8:00 p.m.). The animals were given solid food for monkeys (PS, Oriental Yeast Co., Ltd.), vegetables and fruits, and allowed free access to tap water from an automatic dispenser. The healthy animals without abnormalities in the anterior segment were used in this study.
0.0005% and 0.005% latanoprost eye drops and 0.0005% 15-keto-latanoprost eye drops were prepared with a vehicle consisting of the following composition. The composition of the vehicles in 1 mL was as follows: sodium chloride (4.1 mg), sodium hydrogenphosphate-1H2O (4.6 mg), disodium hydrogenphosphate-2H2O (5.94 mg), benzalkonium chloride (0.200 mg) and water for injection (1 mL).
In the present study, changes in IOP after instillation of 0.005% latanoprost alone at the clinical concentration were compared with those in IOP after additional instillation of 0.0005% latanoprost or 0.0005% 15-keto-latanoprost 12 hours after instillation of 0.005% latanoprost to investigate the significance of the presence of a 13,14-dihydro-15-keto type metabolite in maintaining the IOP lowering effect observed after instillation of latanoprost.
The following 3 treatments were given to the right eye of monkeys at the intervals of at least 10 days. […]
After the ocular surface of monkeys was anesthetized with 0.4% oxybuprocaine hydrochloride (Benoxil® 0.4% solution, Santen Pharmaceutical Co., Ltd.) under i.m. systemic anesthesia with 5-7.5 mg/kg of ketamine hydrochloride, IOP was measured with an applanation pneumatonograph (Alcon Japan Ltd.). IOP was measured before instillation and at 4, 8, 12, 16, 20, 24, 28 and 32 hours after instillation of 0.005% latanoprost.

[3] = Ocular side effects of topical application (stated, no method described); assay type: in vivo; settings: 15-keto latanoprost at the dosages described herein
[4] = latanoprost at its clinical concentration; cited from earlier work
[5] = single instillation of 0.005% latanoprost (clinical concentration), right eye

Compound: CC(C)OC(=O)CCC/C=C\C[C@@H]1[C@@H](CCC(=O)CCc2ccccc2)[C@H](O)C[C@@H]1O [15-keto-latanoprost, 13,14-dihydro-15-keto-17-phenyl-18,19,20-trinor-PGF2α-isopropyl ester]
- intraocular pressure lowered as compared with the pre-treatment value ([1]; 8 hours after the instillation, n=5): 2.4 mmHg
- intraocular pressure lowering effect (in words) [1]: statistically significant
- effect on IOP of additional instillation, compared with 0.005% latanoprost alone [2]: maintained at significantly low levels
- ocular side effects (iridic pigmentation, initial IOP spike, hyperemia) [3]: does not cause iridic pigmentation, an initial IOP spike nor any hyperemia

Compound: CC(C)OC(=O)CCC/C=C\C[C@@H]1[C@@H](CC[C@@H](O)CCc2ccccc2)[C@H](O)C[C@@H]1O [latanoprost, 13,14-dihydro-17-phenyl-18,19,20-trinor-PGF2α-isopropyl ester]
- intraocular pressure lowering effect (in words) [1]: did not lower the intraocular pressure
- effect on IOP of additional instillation, compared with 0.005% latanoprost alone [2]: did not affect IOP
- time at which intraocular pressure returned to the predosing level [2, 5]: 24 h
- time of maximum reduction of intraocular pressure after instillation [2, 5]: 12 h
- ocular side effects (iris pigmentation, IOP spike, hyperemia) [4]: can cause pigmentation of the iris, a mild IOP spike and/or mild hyperemia
